Assay: xn = mol fraction of the nth substance listed
Conditions: 100 kPa

CCCC[N+]1(C)CCCC1.O=S(=O)([N-]S(=O)(=O)C(F)(F)F)C(F)(F)F + Cc1ccccc1
viscosity [mPa·s]
Conditions | x2 = 0 | x2 = 0.1093 | x2 = 0.1978 | x2 = 0.3041 | x2 = 0.3965 | x2 = 0.5054 | x2 = 0.6027 | x2 = 0.7066
293.15 K | 90.2 | 66.9 | 51.5 | 36.61 | 26 | 17.04 | 11.02 | 6.26
298.15 K | – | 52.3 | 41.5 | 29.96 | 21.88 | – | – | 5.73
303.15 K | 56.2 | 42.87 | 34.07 | – | – | 13.06 | 9.11 | 5.28
308.15 K | 45.8 | 34.88 | 28.4 | 21.58 | 16.48 | 11.86 | 8.4 | 5.05
313.15 K | – | 29.43 | 24.08 | – | – | 10.63 | 7.58 | –

CCCC[n+]1ccccc1.O=S(=O)([N-]S(=O)(=O)C(F)(F)F)C(F)(F)F + Cc1ccccc1
viscosity [mPa·s]
Conditions | x2 = 0 | x2 = 0.0994 | x2 = 0.2022 | x2 = 0.2939 | x2 = 0.3972 | x2 = 0.5025 | x2 = 0.6068 | x2 = 0.7033
293.15 K | 68.9 | 54.2 | 41.67 | 31.52 | – | 15.1 | – | 6.11
298.15 K | – | 42.92 | 33.54 | 25.9 | 19 | – | 9.09 | 5.53
303.15 K | 41.94 | 34.61 | 27.6 | – | 16.23 | 11.99 | 8.21 | 5.19
308.15 K | 33.75 | 28.44 | 22.89 | 18.36 | – | – | 7.48 | 4.96
313.15 K | 27.63 | 23.67 | 19.28 | 15.83 | – | 9.23 | – | 4.293

CCCCCC[N+]1(C)CCCC1.O=S(=O)([N-]S(=O)(=O)C(F)(F)F)C(F)(F)F + Cc1ccccc1
viscosity [mPa·s]
Conditions | x2 = 0 | x2 = 0.0942 | x2 = 0.1943 | x2 = 0.29 | x2 = 0.3938 | x2 = 0.493 | x2 = 0.5961 | x2 = 0.6986 | x2 = 0.7993
293.15 K | 136.2 | 103.1 | 77.3 | 55.6 | – | 24.39 | 14.74 | 8.36 | –
298.15 K | 102.8 | 79.3 | 61.2 | 44.91 | 30.92 | 20.68 | 12.89 | 7.61 | 3.838
303.15 K | 79.6 | 62.3 | 48 | 36.7 | 25.95 | 17.85 | – | 6.93 | 3.477
308.15 K | 63.1 | 50.2 | 39.6 | – | 22.17 | 15.66 | 10.64 | 6.49 | –
313.15 K | – | 40.96 | 32.72 | 25.67 | 19.3 | 14.05 | 9.54 | 5.88 | 2.944

Cc1ccccc1 + CCCC[N+]1(C)CCCC1.O=S(=O)([N-]S(=O)(=O)C(F)(F)F)C(F)(F)F
x1 = 1
Conditions | viscosity [mPa·s]
293.15 K | 0.598
298.15 K | 0.569
303.15 K | 0.539
313.15 K | 0.485

Cc1ccccc1 + CCCC[n+]1ccccc1.O=S(=O)([N-]S(=O)(=O)C(F)(F)F)C(F)(F)F
x1 = 1
Conditions | viscosity [mPa·s]
293.15 K | 0.598
298.15 K | 0.569
303.15 K | 0.539
308.15 K | 0.509
313.15 K | 0.485

Cc1ccccc1 + CCCCCC[N+]1(C)CCCC1.O=S(=O)([N-]S(=O)(=O)C(F)(F)F)C(F)(F)F
x1 = 1
Conditions | viscosity [mPa·s]
293.15 K | 0.598
298.15 K | 0.569
303.15 K | 0.539
313.15 K | 0.495
